Several values for one entry are separate records, joined by “and”; a condition that tells them apart may be missing. Equal entries are not always repeated. Where two headings read alike, the source gives them in different places.
Experiments:
[1] = partition constant towards POPC membranes, fluorescence spectroscopy, 100 nm-diameter LUV, ±SD, cited from earlier work
[2] = SPR membrane partition on L1 sensor chip, deposited POPC SUV (steady-state and dissociation models); assay type: physicochemical; settings: 10 mM HEPES, 150 mM NaCl, pH 7.4, 25 °C; for Kp (Steady-state Model) / σ (molar lipid:solute ratio at membrane saturation, Steady-state Model): SPR Biacore X100, L1 chip, association 200 s at 5 μL/min, ±SD, three independent replicates; for Kp (Steady-state Model): POPC SUV (50 nm extrusion), 0.25-700 μM solute, equation (S22) fitted to RUS/RUL vs [S]W, full concentration range; for σ (molar lipid:solute ratio at membrane saturation, Steady-state Model) / Kp (linear partition model, equation (S23)): POPC SUV; for σ (molar lipid:solute ratio at membrane saturation, Steady-state Model): equation (S22); for Kp (linear partition model, equation (S23)): SPR, L1 chip, equation (S23) fitted to the low-concentration linear region only
Method: Lyophilized ENF and KTP were solubilized in 10 mM HEPES, 150 mM NaCl, pH 7.4 buffer to a 1 mg/mL stock solution concentration. Purified F63 stock solutions (~1 mg/mL) were prepared in the same buffer. Lyophilized HRC4 was first solubilized in DMSO to 40 mg/mL, then diluted in 10 mM HEPES, 150 mM NaCl, pH 7.4 buffer for the experiments. The final DMSO content was maintained at 2% (v/v) in all HRC4 experiments. ENF, KTP and HRC4 stock solutions were sonicated in an ultrasonic bath for a 10 min period.
Small unilamellar vesicles (SUV) suspensions were prepared as described before. Briefly, the lipid mixture was dissolved in chloroform in a round bottom flask. Chloroform was evaporated under a constant nitrogen flow. The resulting lipid film was dried in vacuum, overnight. A multilamellar vesicle suspension (MLV) was obtained after lipid film rehydration with 10 mM HEPES, 150 mM NaCl, pH 7.4 buffer and a series of 10 freeze/thaw cycles. MLV suspensions were extruded through a 50 nm track-etched polycarbonate membrane from Whatman/GE Healthcare (Maidstone, United Kingdom). Extrusion was performed in a LiposoFast-Basic plus Stabilizer setup from Avestin (Mannheim, Germany). POPC, POPC:Chol (2:1), POPC:Chol:SM […] and POPC:DPPC (1:1) mixtures were prepared. SUV hydrodynamic diameter (DH) and sample polydispersity were characterized through dynamic light scattering (DLS, Supplementary Fig. S1).
SPR experiments were carried out in a Biacore X100 apparatus from GE Healthcare. Temperature was set at 25 °C for all experiments. A 10 mM HEPES, 150 mM NaCl, pH 7.4 solution was used as running buffer for F63, ENF and KTP experiments. Alternatively, 10 mM HEPES, 150 mM NaCl, pH 7.4 containing 2% (v/v) DMSO was used for HRC4 experiments. The flow system was primed three times before initiating an experiment. The L1 sensor chip was used in all experiments. The sensor chip surface was rinsed with three injections of 20 mM CHAPS before SUV deposition. 1 mM lipid SUV samples were injected over the L1 sensor chip for 2400 s, at a 2 μL/min flow speed. Typical RU values for POPC, POPC:Chol (2:1), and POPC:Chol:SM (1:1:1) SUV depositions were ~8000, ~10000 and ~10500, respectively. Loose vesicles were removed with a 36 s injection of 10 mM NaOH at 50 μL/min. F63, ENF and KTP at defined concentrations (between 0.25 and 700 μM) were injected over pre-formed lipid vesicle-coated surfaces at 5 μL/min, for a total of 200 s (association phase). Samples were also injected at 30 μL/min to confirm the absence of mass transfer effects. Solutes were allowed to dissociate for 800 s. L1 sensor chip surface regeneration was performed with sequential injections of 20 mM CHAPS (5 μL/min for 60 s), 0.5% (w/v) SDS (5 μL/min for 60 s), 10 mM NaOH containing 20% (v/v) methanol (50 μL/min for 36 s) and 10 mM NaOH (50 μL/min for 36 s). Baseline response values were compared before and after each experiment to evaluate the effectiveness of the surface regeneration.
Raw SPR sensorgram data were collected for both lipid deposition and solute binding. SUV deposition response values were collected from sensorgrams upon reaching a stable response. For each studied molecule, association steady-state response values were collected from individual sensorgrams at t = 200 s. Dissociation response data were collected between 200 and 1000 s of each sensorgram.
The steady-state model is a mathematical approach to rigorously quantify solute membrane partition using current SPR lipid bilayer-solute association response data. The partition formalism of equation (S22), can be directly fitted to RUS/RUL vs [S]W data sets to retrieve Kp and σ values. While σ values are very important for specific applications (membrane-targeting antibiotics, for instance[25]), Kp is a fundamental membrane interaction parameter studied for both endogenous and therapeutic molecules. […]

[3] = data previously obtained; ref [25]; cited from earlier work
Source text: If only Kp is desired, a simplified version of the steady-state model (equation (S23)) can be applied to the linear region in each partition plot (Fig. 2, right panel insets). We applied the steady-state model in full to determine σ for each molecule in addition to Kp. […] The σ of ENF and KTP were, respectively, 50 and 69.

**Q.** What does the source list for `N=C(N)NCCC[C@H](NC(=O)[C@@H](N)Cc1ccc(O)cc1)C(=O)O` [KTP, kyotorphin]?
**A.** Kp (Literature) ([1]; ref [27]): 0.66 × 10^3 and 0.66 (±0.23) × 10^3; Kp (Steady-state Model) [2]: 0.10 × 10^3 and 0.10 (±0.01) × 10^3; σ (molar lipid:solute ratio at membrane saturation, Steady-state Model) [2]: ~69 and 69 and 69.0 (±6.3); Kp (linear partition model, equation (S23)) [2]: 0.06 × 10^3

**Q.** With omiganan as the molecule, how does the “σ (lipid:solute ratio at membrane saturation)” value [3] read?
**A.** 66

**Q.** With Enfuvirtide as the molecule, how does the “Kp (Literature)” value ([1]; ref [26]) read?
**A.** 3.20 × 10^3 and 3.20 (±0.20) × 10^3

**Q.** And the “Kp (Steady-state Model)” value [2]?
**A.** 6.41 × 10^3 and 6.41 (±0.50) × 10^3

**Q.** What about the “σ (molar lipid:solute ratio at membrane saturation, Steady-state Model)” value [2] of the same molecule?
**A.** ~50 and 50 and 50.4 (±2.0)

**Q.** And the “Kp (linear partition model, equation (S23))” value [2]?
**A.** 5.29 × 10^3
